Test results published in patent US10292970B2, “Heteroaryl-substituted imidazo[1,2-A]pyridines and their use” (BAYER PHARMA AKTIENGESELLSCHAFT, priority 2014, dated 2019).
Counter-ions that a name gives are not always drawn.

Test system: recombinant guanylate cyclase reporter cell line
Test: Effect on a recombinant guanylate cyclase reporter cell line
Type: cell-based
Settings: in some cases mean values from individual determinations, read-out: MEC (minimum effective concentration)
Description: B-2. Effect on a Recombinant Guanylate Cyclase Reporter Cell Line
The cellular activity of the compounds according to the invention is determined using a recombinant guanylate cyclase reporter cell line, as described in F. Wunder et al., Anal. Biochem. 339, 104-112 (2005).
Representative MEC values (MEC=minimum effective concentration) for the compounds of the invention are shown in the table below (in some cases as mean values from individual determinations): […]

| SMILES | minimal effective concentration |
| --- | --- |
| Cc1nc2c(OCc3c(F)cccc3F)cccn2c1-c1cnc(N2CCN(C)CC2)nc1 [Example 6, 8-[(2,6-Difluorobenzyl)oxy]-2-methyl-3-[2-(4-methylpiperazin-1-yl)pyrimidin-5-yl]imidazo[1,2-a]pyridine] | 10 µM |
| Cc1cc(OCc2c(F)cccc2F)c2nc(C)c(-c3nc(N)nc(N)n3)n2c1 [Example 7, 6-{8-[(2,6-Difluorobenzyl)oxy]-2,6-dimethylimidazo[1,2-a]pyridin-3-yl}-1,3,5-triazine-2,4-diamine] | 0.3 µM |
| Cc1nc2c(OCc3c(F)cccc3F)cccn2c1-c1nc(Cl)nc(NCC(C)(C)N)n1 [Example 11, N′-(4-Chloro-6-{8-[(2,6-difluorobenzyl)oxy]-2-methylimidazo[1,2-a]pyridin-3-yl}-1,3,5-triazin-2-yl)-2-methylpropane-1,2-diamine] | 0.3 µM |
| Cc1cc(OCc2c(F)ccc(F)c2F)c2nc(C)c(-c3nccc(N4CCCC4)n3)n2c1 [Example 16, 2,6-Dimethyl-3-[4-(pyrrolidin-1-yl)pyrimidin-2-yl]-8-[(2,3,6-trifluorobenzyl)oxy]imidazo[1,2-a]pyridine trifluoroacetate] | 3 µM |
| CCN(C)c1ccc(-c2c(C)nc3c(OCc4c(F)cccc4F)cccn23)cn1 [Example 3] | 0.2 µM |
| CC(=O)Nc1cccc(-c2c(C)nc3c(OCC4CCCCC4)cccn23)c1 [Example 19, N-{3-[8-(Cyclohexylmethoxy)-2-methylimidazo[1,2-a]pyridin-3-yl]phenyl}acetamide] | 0.2 µM |
| COCCNc1ccc(-c2c(C)nc3c(OCc4c(F)cccc4F)cccn23)cn1 [Example 2] | 0.1 µM |
| Cc1nc2c(OCc3c(F)cccc3F)cccn2c1-c1ccc(NCc2ccccc2)nc1 [Example 1, N-Benzyl-5-{8-[(2,6-difluorobenzyl)oxy]-2-methylimidazo[1,2-a]pyridin-3-yl}pyridine-2-amine] | 0.1 µM |
| CCCNc1nc(N)nc(-c2c(C)nc3c(OCc4c(F)cccc4F)cc(C)cn23)n1 [Example 9, 6-{8-[(2,6-Difluorobenzyl)oxy]-2,6-dimethylimidazo[1,2-a]pyridin-3-yl}-N-propyl-1,3,5-triazine-2,4-diamine] | 0.3 µM |
| Cc1nc2c(OCc3c(F)cccc3F)cccn2c1-c1ccc(N2CC(C)OC(C)C2)nc1 (stereo not drawn) [Example 4] | 1 µM |
| Cc1cc(OCc2c(F)cccc2F)c2nc(C)c(-c3ccnc(N4CCNCC4)c3)n2c1 [Example 13, 8-[(2,6-Difluorobenzyl)oxy]-2,6-dimethyl-3-[2-(piperazin-1-yl)pyridin-4-yl]imidazo[1,2-a]pyridine] | 0.2 µM |
| Cc1cc(OCc2c(F)cccc2F)c2nc(C)c(-c3nc(N)nc(N(C)C)n3)n2c1 [Example 8, 6-{8-[(2,6-Difluorobenzyl)oxy]-2,6-dimethylimidazo[1,2-a]pyridin-3-yl}-N, N-dimethyl-1,3,5-triazine-2,4-diamine] | 0.3 µM |
| Cc1cc(OCc2c(F)cccc2F)c2nc(C)c(-c3cc(NCC(C)(C)N)ncc3F)n2c1 [Example 10, N′-(4-{8-[(2,6-Difluorobenzyl)oxy]-2,6-dimethylimidazo[1,2-a]pyridin-3-yl}-5-fluoropyridin-2-yl)-2-methylpropane-1,2-diamine] | 0.1 µM |
| Cc1nc2c(OCc3c(F)cccc3F)cccn2c1-c1ncnc(NCC(C)(N)CCC(F)(F)F)n1 (single isomer, unassigned; enantiomer b) [Example 12, ent-N^1-(4-{8-[(2,6-Difluorobenzyl)oxy]-2-methylimidazo[1,2-a]pyridin-3-yl}-1,3,5-triazin-2-yl)-5,5,5-trifluoro-2-methylpentane-1,2-diamine (enantiomer B)] | 1 µM |
| Cc1cc(OCc2c(F)cccc2F)c2nc(C)c(-c3cccc(N4CCCC4)c3)n2c1 [Example 14, 8-[(2,6-Difluorobenzyl)oxy]-2,6-dimethyl-3-[3-(pyrrolidin-1-yl)phenyl]imidazo[1,2-a]pyridine] | 6.5 µM |
| CC(=O)Nc1cccc(-c2c(C)nc3c(OCc4ncccc4F)cc(Cl)cn23)c1 [Example 20, N-(3-{6-Chloro-8-[(3-fluoropyridin-2-yl)methoxy]-2-methylimidazo[1,2-a]pyridin-3-yl}phenyl)acetamide] | 0.3 µM |
| Cc1nc2c(OCc3c(F)cccc3F)cccn2c1-c1ccc(Nc2ccccc2)nc1 [Example 5] | 3 µM |
| CC(=O)Nc1cccc(-c2c(C)nc3c(OCc4c(F)cccc4F)cc(C)cn23)c1 [Example 15, N-(3-{8-[(2,6-Difluorobenzyl)oxy]-2,6-dimethylimidazo[1,2-a]pyridin-3-yl}phenyl)acetamide] | 0.02 µM |
